Measurements as given in article PMC9901219 (European Journal of Medicinal Chemistry, 2023).

Test system: F1G cells

Cc1cccc2nc(CSC(=S)NCc3cccnc3)cn12 [Compound 1, (5-methylimidazo[1,2-a]pyridin-2-yl)methyl (pyridin-3-ylmethyl)carbamodithioate]
cytotoxicity: without cytoxicity at the active doses
